{
  "source": "ChEMBL document CHEMBL3352253",
  "about": "“ApoE secretion modulating bromotyrosine derivative from the Australian marine sponge Callyspongia sp” (2014)",
  "system": "CCF-STTG1",
  "assay": "Induction of apolipoprotein E secretion in human CCF-STTG1 cells at 40 uM after 96 hrs by ELSA relative to control",
  "assay_type": "functional",
  "data": [
    {"smiles": "COc1c(Br)cc(CC(=O)C(=O)O)cc1Br", "values": [
      {"measurement": "fold change (FC)", "value": 1}
    ]}
  ]
}
